Values quoted from earlier work in patent US7629004B2, “Composition and process for removing and preventing mildew and fungal growth” (priority 2005, dated 2009).

Test system: fungi
Conditions: fungal contamination of aircraft interior surfaces

For `CC(C)O` [isopropyl alcohol], the “Effectiveness of approved military cleaning procedure” value is listed as “ineffective”.
